Assay results taken from patent US20250215105A1, “ANTI-CD39 ANTIBODY” (BrightPath Biotherapeutics Co., Ltd., priority 2022, published 2025).

How the values were obtained:
[1] = system: activated Tregs; experiment: binding to activated Tregs (FACS); parameters: species or system human; conditions: 10 μg/mL
Procedure: Purchased healthy human PBMCs (Wako Pure Chemicals, 33000-10M) were seeded at 2×10^5 cells/well in a 96 well U-bottom plate and cultured in the presence of 10 IU/mL IL-2 (NIPRO, 87-890) and 20 ng/mL IL-7 (PeproTech, 200-07) for 6 days. After 6 days, all the cells were collected and the Treg population was isolated using a CD4^+CD25^+CD127^dim/− Regulatory T Cell Isolation Kit II, human (Miltenyi, 130-094-775). Isolated Tregs were seeded at 2×10^4 cells/well in ab96 well U-bottom plate and stimulated for 6 days in the presence of 6×10^5 Dynabeads Human T-Activator CD3/CD28 (Gibco, DB11132-D), 10 IU/mL IL-2, and 20 ng/mL IL-7. The medium used was RPMI (Wako Pure Chemicals, 189-02025) supplemented with 10% Human Serum AB (Gemini Bio, 100-512, H46X00K), 1 mM penicillin streptomycin (Nacalai Tesque, 09367-34), 1 mM sodium pyruvate (Gibco, 11360070), 10 mM HEPES (Nacalai Tesque, 17557-94), GlutaMAX (Thermo Fisher, 35050061). 11360070), 10 mM HEPES (Nacalai Tesque, 17557-94), and GlutaMAX (Thermo Fisher, 35050061). After 6 days, Tregs were collected and analyzed for binding of each test antibody by using a FACSVerse. GraphPad Prism 9.2.0 was used for data analysis.

[2] = system: T cells in healthy human PBMCs; experiment: effects on T cells in cultured healthy PBMCs (cell type analysis, Treg removal, cytotoxic T cell induction); type: cell-based; conditions: healthy PBMCs cultured with antibody for 5 days
Procedure: Purchased healthy human PBMCs (33000-10, Wako Pure Chemicals) were seeded at 5×10^5 cells/well in a 96 well U-bottom plate and cultured in the presence of 100 IU/mL IL-2 (87-890, NIPRO) and 20 ng/mL IL-7 (200-07, PeproTech) for 5 or 6 days to induce Tregs. The medium was washed out and the cells were cultured in the presence of CMV peptide A02 (TS-0010-1c, MBL), 10 IU/mL IL-2, and 20 ng/mL IL-7 for 11 days to induce antigen-specific cytotoxic T cells. The medium used was RPMI-1640 (189-0202, Wako Pure Chemicals) supplemented with 10% Human Serum AB (100-512, H46X00K, Gemini Bio), 1 mM penicillin streptomycin (09367-34, Nacalai Tesque), 1 mM sodium pyruvate (11360070, Gibco), 10 mM HEPES (17557-9, Nacalai Tesque), 1% GlutaMAX (35050061, Thermo Fisher), and 0.01 mM 2-mercaptoethanol (21438-82, Nacalai Tesque).
FACSVerse (BD) was used for various cell type analyses. Cells were counted using CountBright™ Absolute Counting Beads (C36950, Invitrogen). GraphPad Prism 9.2.0 was used for data analysis.
Substantially the same method as described in the Section 21.1 above was used to check a change in the percentage of various CD39^hi-expressing T cells by each glycan-modified anti-CD39 antibody.

[3] = system: A375 (malignant melanoma cancer cell line); experiment: cancer cell growth inhibition test with Treg-removed PBMCs; type: cell-based, human; conditions: PBMCs pre-treated with 10 μg/ml antibody for 5 days, co-culture 5 days
Procedure: Purchased healthy human PBMCs (Wako Pure Chemicals, 33000-10M) were seeded at 5×10^5 cells/well in a 96 well U-bottom plate and cultured in the presence of 100 IU/mL IL-2 (NIPRO, 87-890), 20 ng/mL IL-7 (PeproTech, 200-07), and each test antibody at 10 μg/ml for 5 days. Then, 15,000 cells/well of A375 (malignant melanoma cancer cell line) overexpressing CMV antigen and RFP were mixed with 45,000 cells/well of PBMCs prepared after 5 days of culture, and the mixture was co-cultured at 37° C. and 5% CO2 for 5 days. At this time, the medium used was RPMI-1640 (189-0202, Wako Pure Chemicals) supplemented with 10% Human Serum AB (100-512, H46X00K, Gemini Bio), 1 mM penicillin streptomycin (09367-34, Nacalai Tesque), 1 mM sodium pyruvate (11360070, Gibco), 10 mM HEPES (17557-9, Nacalai Tesque), 1% GlutaMAX (35050061, Thermo Fisher), and 0.01 mM 2-mercaptoethanol (21438-82, Nacalai Tesque). The number of A375 cells was then determined by measuring the fluorescence value of RFP while using a Varioskan LUX multimode microplate reader (Thermo Fisher Scientific). GraphPad Prism 9.2.0 was used for data analysis.

[4] = system: human multiple myeloma-derived cell line MOLP-8; conditions: day 24, last day of the study
Procedure: The human multiple myeloma-derived cell line MOLP-8 (DMSZ, ACC569) was subcutaneously transplanted (at 5×10^6 cells/mouse) into the right abdomen of each SCID mouse (C.B-17/Icr-scid/scidJcl, female, 7-week-old). On day 10 after transplantation, the mice were divided into groups based on tumor volume. Each antibody was administered in the doses listed in Table 3 twice a week for a total of seven doses starting on the day of grouping. Doxorubicin was administered twice a week for a total of 5 doses, starting 7 days after the grouping date. The tumor diameter and body weight were measured on day 24 after grouping. The tumor weight (n=5) data were analyzed using GraphPad Prism 9.2.0. One-way ANOVA and Tukey multiple comparisons test were used for statistical analysis. A significant difference was assumed when p**≤0.01.

ability of binding to activated Tregs [1]	heart weight [4]	Compound	CD39^hiCD4+FoxP3+ Tregs and effector Tregs (Fr. II) [2]	growth of human malignant melanoma A375 [3]
not strong	–	ipilimumab	significant loss of only effector Tregs (Fr. II)	no inhibitory effect
not strong	–	mogamulizumab	significant loss of only effector Tregs (Fr. II)	–
–	decreased	COc1cccc2c1C(=O)c1c(O)c3c(c(O)c1C2=O)C[C@@](O)(C(=O)CO)C[C@@H]3O[C@H]1C[C@H](N)[C@H](O)[C@H](C)O1 [doxorubicin]	–	–
